# In patent US5519049A, “Macrolides for the treatment of reversible obstructive airways diseases” (Fisons plc, priority 1989, dated 1996):
# Tests used:
# [1] = tested on: ddy mice; assay: Acute intraperitoneal toxicity study; assay type: in vivo; details: 100 mgkg^-1
# [2] = tested on: antigen-induced bronchial hyper-responsiveness to acetylcholine; assay: Assay for antigen-induced bronchial hyper-responsiveness to acetylcholine (PC200-Ach); assay type: in vivo, inhalation-sensitized male Hartley guinea pigs; details: oral pretreatment every other day, 1 mgml^-1 solution, n = 7, result in words (table title)
# Method: (§1) Assay for inhibitory activity against respiratory resistance and antigen-induced bronchial hyper-responsiveness
# (§2) Male Hartley guinea pigs (weighing about 300 g) were each placed in a plastic inhalation chamber. Using an ultrasonic nebulizer (NEU10B, Omron Corporation), an aerosolized solution of ovalbumin in physiological saline (10 mgml^-1) was introduced into the chamber for 10 minutes daily for 10 consecutive days to effect sensitization. The animals were used in the experiments 5 days after establishment of sensitization.
# During the period from the first day of sensitization to the day before an antigen challenge, the animals were orally treated with a 1 mgml^-1 solution of FR-900506 (in ethanol/olive oil [2:78 v/v]) every other day. Control animals received the ethanol/olive oil vehicle alone in the same manner. […]
# Guinea pigs prepared by the method described above were placed in an animal box as described above and the baseline respiratory resistance was measured. […] From the concentration-resistance curve constructed from the acetylcholine concentration and respiratory resistance data, the acetylcholine concentration necessary for increasing the respiratory resistance to twice the baseline value [i.e. PC200 -Ach (μgml^-1)] was calculated.
# (§3) The results are expressed as mean ±SEM. […]
# [3] = tested on: respiratory resistance; assay: Assay for respiratory resistance (inhibitory activity after antigen inhalation challenge, oscillation method); assay type: in vivo, inhalation-sensitized male Hartley guinea pigs; details: oral pretreatment every other day, 1 mgml^-1 solution; n = 7; after ovalbumin inhalation challenge; result in words (table title)
# Method: as §1, §2
# During the period from the first day of sensitization to the day before an antigen challenge, the animals were orally treated with a 1 mgml^-1 solution of FR-900506 (in ethanol/olive oil [2:78 v/v]) every other day. Control animals received the ethanol/olive oil vehicle alone in the same manner.
# The experimental period was 5 days from day 1 to day 5, and the inhalation challenge with the antigen was given on day 2.
# On day 1, and 30 minutes before antigen inhalation challenge on day 2, metopirone (an endogenous cortisol synthesis inhibitor) was intravenously administered (10 mgkg^-1). So that the animals could tolerate the antigen at comparatively high concentrations, chlorpheniramine maleate, an antihistaminic, was intraperitoneally administered (10 mgkg^-1) following the second dose of metopirone. […]
# as §3
compound,measurement,setting,value
C=CC[C@@H]1/C=C(\C)C[C@H](C)C[C@H](OC)[C@H]2O[C@@](O)(C(=O)C(=O)N3CCCC[C@H]3C(=O)O[C@H](/C(C)=C/[C@@H]3CC[C@@H](O)[C@H](OC)C3)[C@H](C)[C@@H](O)CC1=O)[C@H](C)C[C@@H]2OC [FR-900506],"Acute intraperitoneal toxicity, deaths",[1],no deaths
same,Inhibitory effect on antigen induced hyper-responsiveness to acetylcholine,[2],Inhibitory effect
same,Inhibitory effect on respiratory resistance,[3],Inhibitory effect
